Experimental data: PMC7719179, “Small molecule inhibition of Dynamin-dependent endocytosis targets multiple niche signals and impairs leukemia stem cells” (Nature Communications, 2020)
Where “and” joins values, the source holds several entries; their conditions need not be identical. Equal entries are not always repeated.

Key:
[1] = test system: IL-7 signalling (pStat5) in Ba/F3-IL7R cells; experiment: IL-7-induced phospho-Stat5 in Ba/F3-IL7R cells (phosphoflow); assay type: cell-based, murine; details: Ba/F3-IL7R cells; result in words
Procedure: (§1) Ba/F3 cells (kindly provided by a person from The Walter and Eliza Hall Institute of Medical Research) were infected with pMIG-R1/Il7r retroviral supernatants produced in 293T cells, and transduced cells were sorted with a BD Influx (BD Australia) and selected by culture in medium supplemented with 5 ng/mL rmIL-7 (#217-17, Pepro Tech, Rocky Hill NJ, USA) for 7 days. Ba/F3 cells stably expressing Il7r (Ba/F3-IL7R) were infected with TxTCPVIR-Stat5-CA retroviral supernatants produced in 293T. Cell sorting was performed with a BD Influx and transduced cells were treated with doxycycline for 48 h to induce the expression of the Stat5-CA-T2A-mCherry fusion protein.
Phosphoflow analysis was performed as previously described. Briefly, 2 × 10^6 cells stained for surface markers were subsequently resuspended into PBS 1× + 4% v/v paraformaldehyde and incubated for 10 min at 4 °C for fixation. Fixed cells were washed twice using PBS 1×, then resuspended in pre-chilled at −20 °C Perm Buffer III (BD Pharmingen) and incubated 30 min at 4 °C for permeabilization. Cells were washed twice using PBS 1× and incubated overnight at 4 °C in PBS 1× + 2% v/v fetal calf serum (FCS) with Cell Signalling purified antibodies (Genesearch Pty Ltd, Arundel QLD, Australia) against pSTAT5 (Tyr694; #9359), phospho-p38 MAPK (Thr180/Tyr182; #4511), phospho-p44/42 (Erk1/2; #9102), phospho-S6 (Ser235/236; #4856) and phospho-Akt (Ser473; #9271) or isotype control. For intracellular HES1 detection, cells stained for surface markers were subsequently fixed and permeabilized using the BD Cytofix/Cytoperm^TM Kit and incubated overnight at 4 °C in PBS 1× + 2% v/v FCS with a purified antibody against HES1 (D6PU; #11988, Cell Signalling) or isotype control. After staining with primary antibodies for phosphoflow or intracellular detection, cells were incubated in permeabilization buffer with donkey Alexa Fluor 488-conjugated anti-rabbit secondary antibody (A-21206, lot #1910751, Molecular Probes, Invitrogen) or goat Alexa Fluor 546-conjugated anti-rabbit secondary antibody (A-11035, lot #1904467, Molecular Probes, Invitrogen) for 1 h on ice, and washed twice in PBS 1×. Fluorescence-activated cell sorting (FACS) analysis was performed using LSRII and LSR Fortessa cytometers, following the gating strategies described in Supplementary Fig. 11. Cell sorting was performed with a FACSAria or BD Influx.
For in vitro IL-7 stimulation assays, cells were starved in serum-free DMEM at 37 °C, then incubated with either vehicle or Dynole 34-2 or Ruxolitinib (INCB018424; #S1378, Selleckchem), or DAPT (GSI-IX; #S2215, Selleckchem) resuspended in DMSO for 1 h. Thymocytes were subsequently stimulated with 25 ng/mL IL-7 at 37 °C for 20 min and washed twice using cold PBS 1×. Cells were incubated with 25 ng/mL Rat IgG (Sigma-Aldrich Pty Ltd, Castle Hill NSW, Australia) and with a PE-conjugated antibody for detection of IL-7R (CD127) for 1 h on ice, as described in the FACS analysis section. PE-conjugated isotype was used as negative control. Cells were washed twice, fixed and phosphoflow analysis performed as described in the FACS analysis section. The analysis was performed in triplicate and the mean fluorescence intensity (MFI) observed without stimulation was reported as 100%.

[2] = test system: Ba/F3-IL7R^Stat5-CA cells; experiment: pStat5 and proliferation of Ba/F3-IL7R^Stat5-CA cells with IL-7 or doxycycline; assay type: cell-based, murine; details: relative to data from day 0, reported as 1, groups +IL-7 -DOX or -IL-7 +DOX
Procedure: as §1, with “protein. […]” for “protein.”
(red) assessed by flow cytometry (top) and Western blots (bottom). MFI ± SD of n=2 technical replicates, performed in 2 independent experiments (***P<0.001 compared to unstimulated cells ; white bar). For Western blots, Actin was used as a loading control. f, Proliferation of BaF3-IL7R Stat5-CA cells in absence (+IL-7 –DOX; grey) or presence (-IL-7 +DOX; red) of doxycycline. Fold expansion was calculated from the number of cells initially put into culture at day 0. […]

[3] = test system: Ba/F3-IL7R^Stat5-CA cells; experiment: Cytotoxic activity in IL-7-dependent and IL-7-independent Ba/F3-IL7R^Stat5-CA cells; assay type: cell-based, murine; details: for Survival (%) over survival at day 0, reported as 100%: Ba/F3-IL7R^Stat5-CA cells, dose = IC50 or LC50 of each drug
Description: The doxycycline-inducible dual-colour TRMPVIR (TRE-dsRed-miR30/shRNA-PGK-Venus-IRES-rtTA3) retroviral vector[84] was kindly given by R. A. Dickins and was modified by replacing the dsRed-miR30/shRNA sequence by a T2A self-cleaving peptide[85] fusioned with the mCherry fluorescent protein (from TRIPZ, Addgene) inserted into the BamHI and EcoRI sites of the plasmid downstream of the TRE promoter to generate the TxTCPVIR (TRE-gene-T2A-mCherry-PGK-Venus-IRES-rtTA3) retroviral vector. Using standard cloning techniques, we inserted the full-length sequence of Stat5-CA from the pMig-R1 construct into the TxTCPVIR vector to generate the TxTCPVIR-Stat5-CA construct. All subcloned constructs were verified by DNA sequencing (Micromon, Monash University, Australia). Detailed cloning strategies, primers sequences and vectors are available on request.
as §1
Flow cytometry analyses were performed as previously described[10],[86] on single-cell suspensions stained using BD Pharmingen antibodies (BD Australia, North Ryde NSW, Australia) against mouse CD4 (RM4-5), CD8 (53-6.7), CD25 (PC61.5), CD44 (IM7), CD45.1 (A20), CD45.2 (104), Thy1.2 (53-2.1; #561616), TCRβ (H57-597), CD117 (ACK45), CD135 (A2F10.1), CD150 (TC15-12F12.2; #562373), B220 (RA3-6B2; #563708), CD3 (145-2C11; #563004), CD19 (ID3; #557655), Gr-1 (RB6-8C5; #563299 and #565033), CD11b (M1/70; #563015 and #560455), Ter119 (Ter119; #565523 and #557909), Sca-1 (D7; #558160) and an eBioscience antibody (eBioscience, Invitrogen) against mouse NOTCH1 (22E5). DN3 populations and IL-7R were stained using BioLegend antibodies (Australian Biosearch, Balcatta WA, Australia) against mouse CD28 (E18) and CD127 (A7R34), respectively. Apoptosis was measured using an antibody against AnnexinV (#556420, BD Australia) and the […] Sytox Blue (BD Australia) following the manufacturer’s protocol.

DN3a thymocytes = experiment: Relative viability and LC50 on DN3a thymocytes of WT, Lmo2^Tg, Lmo2^Tg;STAT5-CA^Tg and Lmo2^Tg;N1-ICD^Tg mice, 48 h; details: Lmo2Tg;STAT5-CATg
Procedure: Pre-leukemic and leukemic thymocytes were purified by flow cytometry and co-cultured on GFP-positive OP9 and OP9-DL1 stromal cell lines, as described previously. Thymocytes were co-cultured in reconstituted alpha-MEM medium (#12318, Gibco, Grand Island NY, USA) supplemented with 20% FCS (#12318), HEPES 10 mM (#15630-080), sodium pyruvate 1 mM (#11360-070), β-mercaptoethanol 55 μM (#21985-023), Glutamax 2 mM (#15750-060), 1% Penicillin/Streptomycin (#15140-122), 5 ng/mL rmFLT-3 ligand (#250-31 L, Pepro Tech), 5 ng/mL rmIL-7 (#217-17, Pepro Tech) and 25 ng/mL rmSCF (#250-03, Pepro Tech). After 48 h of co-culture, thymocytes were counted and analysed by FACS. […]
viability of wild-type (WT), Lmo2 Tg, Lmo2Tg;STAT5-CA Tg and Lmo2Tg;N1-ICD Tg DN3a thymocytes […]
normalized to cells treated with vehicle (%DMSO). Mean ± SEM of n=4 biological replicates. b, […]
thymocytes from 6-week old wild-type (WT), Lmo2 Tg, Lmo2Tg;STAT5-CATg and Lmo2Tg ;N1-ICD Tg mice. Mean ± SD of n=4 biological replicates are shown. 2-way ANOVA with Tukey’s correction test; […]
(1 picture or pasted object on this page, not shown here)
*P<0.05, *** P<0.001 compared to WT; #P<0.05, ##P<0.01, ###P<0.001 compared to L mo2Tg. c, Levels of pStat5 (left) after stimulation with IL-7 , as well as Hes1 expression (right) after co-culture on OP9- […]
(0.2 µM), Ruxolitinib (0.2 µM) and DAPT (0.1 µM). Unstimulated cells were used as negative controls (dashed line). Student’s t -test, ** P<0.01, *** P<0.001 compared to unstimulated cells. MFI ± SEM, 1-way ANOVA with Tukey’s correction test; **P<0.01, *** P<0.001 compared to vehicle. d, Clonogenic assay of normal murine hematopoietic stem and progenitor cells (HSPCs) cultured in the presence […]
± SD, Student’s t -test ( n=4) **P<0.01 compared to vehicle. e, Relative viability of wild-type (WT), […]
2 (0.2 µM), Ruxolitinib (0.2 µM) and DAPT (0.1 µM) for 48 hours. Viability was normalized to cells treated with vehicle (%DMSO, which was reported as 100). Mean ± SEM, 2-way ANOVA with Tukey’s correction test, **P<0.01, *** P<0.001 compared to vehicle.

With `O=C(N/N=C/c1ccc(O)c(O)c1)c1cc2ccccc2cc1O` [Dynasore, reference compound] the “inhibition of IL-7 signalling as measured by loss of phospho-Stat5” value [1] was “dose-dependent inhibition”.
With IL-7 the Fold expansion ([2]; 24 h) was 0.74 and 0.75 and 0.79 and 0.97 and 0.91 and 0.98, the Fold expansion ([2]; 72 h) was 2.37 and 2.58 and 4.20 and 3.96 and 3.95 and 3.51 and the Fold expansion ([2]; 120 h) was 9.32 and 11.24 and 15.76 and 15.48 and 14.68 and 15.08.
With `CC[C@]1(O)C[C@H]2CN(CCc3c([nH]c4ccccc34)[C@@](C(=O)OC)(c3cc4c(cc3OC)N(C=O)[C@H]3[C@@](O)(C(=O)OC)[C@H](OC(C)=O)[C@]5(CC)C=CCN6CC[C@]43[C@@H]65)C2)C1` [Vincristine] the “Survival (%) over survival at day 0, reported as 100%” value (from here on “Survival (%) over survival”) ([3]; +IL-7 -DOX, 0 h) was 100.02% and 100.26% and 100.28% and 99.72% and 99.53% and 100.47%, the “Survival (%) over survival” value ([3]; +IL-7 -DOX, 24 h) was 97.78% and 97.03% and 92.76% and 93.67% and 88.90% and 79.18% and the “Survival (%) over survival” value ([3]; +IL-7 -DOX, 48 h) was 60.76% and 61.24% and 44.94% and 67.20% and 75.05% and 65.49%. For the same compound, the “Survival (%) over survival” value ([3]; +IL-7 -DOX, 72 h) was 42.05% and 38.67% and 50.69% and 46.55% and 54.10% and 54.58%, the “Survival (%) over survival” value ([3]; +IL-7 -DOX, 96 h) was 9.57% and 5.19% and 6.30% and the “Survival (%) over survival” value ([3]; -IL-7 +DOX, 0 h) was 100.62% and 100.47% and 99.53% and 102.59% and 99.98% and 100.02%. For the same compound, the “Survival (%) over survival” value ([3]; -IL-7 +DOX, 24 h) was 84.77% and 83.72% and 89.11% and 91.00% and 83.57% and 82.00%, the “Survival (%) over survival” value ([3]; -IL-7 +DOX, 48 h) was 82.10% and 78.50% and 82.90% and 69.10% and 67.20% and 82.60% and the “Survival (%) over survival” value ([3]; -IL-7 +DOX, 72 h) was 60.60% and 57.90% and 64.60% and 57.00% and 62.20% and 65.20%. The “Survival (%) over survival” value ([3]; -IL-7 +DOX, 120 h) was 34.10% and 40.50% and 30.80% and 32.50% and 34.90% and 26.60% and the “sensitivity of Ba/F3-IL7R^Stat5-CA cells with constitutive pStat5 (doxycycline)” value ([3]; result in words) was “equally effective”.
With `CCCCCCCCNC(=O)/C(C#N)=C/c1cn(CCCN(C)C)c2ccccc12` [Dynole 34] the “Survival (% DMSO)” value (DN3a thymocytes) was 50.05 % DMSO and 55.36 % DMSO and 37.5 % DMSO and 40.03 % DMSO.
In the case of `O=C(NN=Cc1cc(O)c(O)cc1O)c1cc2ccccc2cc1O` [Dyngo 4a, 3-Hydroxy-N’-[(2,4,5-trihydroxyphenyl)-methylidene]-naphthalene-2-carbohydrazide, reference compound], the “inhibition of IL-7 signalling as measured by loss of phospho-Stat5” value [1] is reported as “dose-dependent inhibition”.
